Measured values reported in patent US4436751A, “Nitrobenzyl monates antibacterial compounds” (Beecham Group Limited, priority 1980, dated 1984).
Converted amounts (≈) assume the structure as drawn. Like-named read-outs stand apart in the source and are kept apart here.

Assays:
Format in all cases: cell-based
M. suipneumoniae NB12 = experiment: Anti-mycoplasmal MIC in vitro, Friis broth agarose (Table 1); conditions: Mesomycoplasma hyopneumoniae, NB12, 144 h
M. suipneumoniae MS 16 = experiment: as above; conditions: Mesomycoplasma hyopneumoniae, MS16, 144 h
M. hyorhinis ATCC 23234 = experiment: as above; conditions: Mesomycoplasma hyorhinis, ATCC23234, 144 h
[1] = system: M. hyosynoviae ATOC 25591; experiment: as above; conditions: 144 h
[2] = system: M. bovigenitalium ATOC 14173; experiment: as above; conditions: 144 h
M. gallisepticum S6 = experiment: as above; conditions: Mycoplasmoides gallisepticum, S6, 144 h
Bord. bronchiseptica BO8 = experiment: Veterinary bacteria MIC, Diagnostic Sensitivity Test Agar (Table 2); conditions: Bordetella bronchiseptica, BO8, 18 h
Experimental: (§1) The values were determined using a two fold serial dilutions in Diagnostic Sensitivity Test Agar with an inoculum of 10^4 organisms and incubation for 18 hours at 37° C.

Bord. bronchiseptica BO9 = experiment: as above; conditions: Bordetella bronchiseptica
Experimental: as §1

[3] = system: Corynebacterium pyogenes CY1; experiment: as above; conditions: Trueperella pyogenes, CY1, 18 h
Experimental: as §1

E. Coli E1 = experiment: as above; conditions: Escherichia coli, 18 h
Experimental: as §1

E. Coli NCTC 10418 = experiment: as above; conditions: Escherichia coli, NCTC10418, 18 h
Experimental: as §1

[4] = system: Erysipelothrix rhusiopathiae NCTC 8163; experiment: as above; conditions: Erysipelothrix rhusiopathiae, NCTC8163, 18 h
Experimental: as §1

Past. haemolytica PA5 = experiment: as above; conditions: Mannheimia haemolytica
Experimental: as §1

Past. multocida PA1 = experiment: as above; conditions: Pasteurella multocida, PA1, 18 h
Experimental: as §1

Past. multocida PA2 = experiment: as above; conditions: Pasteurella multocida, PA2, 18 h
Experimental: as §1

S. dublin S7 = experiment: as above; conditions: Salmonella enterica, S7, 18 h
Experimental: as §1

S. typhimurium S18 = experiment: as above; conditions: Salmonella enterica, TYPHIMURIUM, 18 h
Experimental: as §1

Staph. aureus 152 = experiment: as above
Experimental: as §1

Staph. aureus B4 = experiment: as above; conditions: Staphylococcus aureus
Experimental: as §1

Staph. aureus Oxford = experiment: as above; conditions: Staphylococcus aureus
Experimental: as §1

Strep. agalactiae SPA1 = experiment: as above; conditions: Streptococcus agalactiae
Experimental: as §1

Strep. dylgalactiae SPD1 = experiment: as above
Experimental: as §1

Strep. uberis SPO1 = experiment: as above; conditions: Streptococcus uberis
Experimental: as §1

[5] = system: Neisseria catarrhalis 1502; experiment: Human bacteria MIC, nutrient agar with chocolated horse blood (Table 3); conditions: Neisseria, 1502, 18 h
Experimental: (§2) The values were determined by serial dilutions in nutrient agar with 5% chocolated horse blood after incubations for 18 hours at 37° C.

Strep. 2733-B = experiment: as above
Experimental: as §2

Strep. 641848-C = experiment: as above
Experimental: as §2

Strep. pneumoniae CN33 = experiment: as above; conditions: Streptococcus pneumoniae, CN33, 18 h
Experimental: as §2

| Structure (SMILES) | MIC (M. suipneumoniae NB12) | MIC (M. suipneumoniae MS 16) | MIC (M. hyorhinis ATCC 23234) | MIC [1] | MIC [2] | MIC (M. gallisepticum S6) | MIC (Bord. bronchiseptica BO8) | MIC [3] | MIC (E. Coli E1) | MIC (E. Coli NCTC 10418) | MIC [4] | MIC (Past. multocida PA1) | MIC (Past. multocida PA2) | MIC (S. dublin S7) | MIC (S. typhimurium S18) | MIC [5] | also measured |
| --- | --- | --- | --- | --- | --- | --- | --- | --- | --- | --- | --- | --- | --- | --- | --- | --- | --- |
| C/C(=C\C(=O)OCc1cc([N+](=O)[O-])cc([N+](=O)[O-])c1C)CC1OCC(CC2OC2C(C)C(C)O)C(O)C1O (centres unmarked) [Example 7, 3,5-dinitro-2-methylbenzyl monate A] | 0.25 µg/mL (≈ 0.464 µM) | 0.1 µg/mL (≈ 0.186 µM) | 0.1 µg/mL (≈ 0.186 µM) | 0.1 µg/mL (≈ 0.186 µM) | ≤ 0.1 µg/mL | 2.5 µg/mL (≈ 4.64 µM) | 40 µg/mL (≈ 74.3 µM) | > 80 µg/mL | > 80 µg/mL | > 80 µg/mL | 10 µg/mL (≈ 18.6 µM) | 2.5 µg/mL (≈ 4.64 µM) | 1.25 µg/mL (≈ 2.32 µM) | > 80 µg/mL | > 80 µg/mL | 0.25 µg/mL (≈ 0.464 µM) | MIC (Bord. bronchiseptica BO9; BO9, 18 h): 10 µg/mL (≈ 18.6 µM); MIC (Past. haemolytica PA5; PA5, 18 h): 5 µg/mL (≈ 9.28 µM); MIC (Staph. aureus 152; Staphylococcus aureus, 152, 18 h): 0.625 µg/mL (≈ 1.16 µM); MIC (Staph. aureus B4; B4, 18 h): 0.625 µg/mL (≈ 1.16 µM); MIC (Staph. aureus Oxford; 18 h): 0.625 µg/mL (≈ 1.16 µM); MIC (Strep. agalactiae SPA1; SPA1, 18 h): 0.625 µg/mL (≈ 1.16 µM); MIC (Strep. dylgalactiae SPD1; 18 h): 0.625 µg/mL (≈ 1.16 µM); MIC (Strep. uberis SPO1; SPO1, 18 h): 0.156 µg/mL (≈ 0.29 µM); MIC (Strep. 2733-B; 18 h): 2.5 µg/mL (≈ 4.64 µM); MIC (Strep. 641848-C; 18 h): 1 µg/mL (≈ 1.86 µM); MIC (Strep. pneumoniae CN33): 0.5 µg/mL (≈ 0.928 µM) |
| C/C(=C\C(=O)OCc1ccc([N+](=O)[O-])cc1Cl)CC1OCC(CC2OC2C(C)C(C)O)C(O)C1O (centres unmarked) [Example 11, 2-chloro-4-nitrobenzyl monate A] | 1 µg/mL (≈ 1.95 µM) | 1 µg/mL (≈ 1.95 µM) | 0.5 µg/mL (≈ 0.973 µM) | 0.1 µg/mL (≈ 0.195 µM) | 0.05 µg/mL (≈ 0.0973 µM) | 2.5 µg/mL (≈ 4.86 µM) | 10 µg/mL (≈ 19.5 µM) | > 80 µg/mL | 80 µg/mL (≈ 156 µM) | 80 µg/mL (≈ 156 µM) | 5 µg/mL (≈ 9.73 µM) | 0.625 µg/mL (≈ 1.22 µM) | 0.156 µg/mL (≈ 0.304 µM) | 80 µg/mL (≈ 156 µM) | 80 µg/mL (≈ 156 µM) | 0.5 µg/mL (≈ 0.973 µM) | MIC (Bord. bronchiseptica BO9; Bord. bronchiseptica BO9, DST Agar, 10^4 organisms, 18 hours 37° C., read-out: MIC): 2.5 µg/mL (≈ 4.86 µM); MIC (Past. haemolytica PA5; Past. haemolytica PA5, DST Agar, 10^4 organisms, 18 hours 37° C., read-out: MIC): 2.5 µg/mL (≈ 4.86 µM); MIC (Staph. aureus 152; Staphylococcus aureus, Staph. aureus 152, DST Agar, 10^4 organisms, 18 hours 37° C., read-out: MIC): 0.07 µg/mL (≈ 0.136 µM); MIC (Staph. aureus B4; Staph. aureus B4, DST Agar, 10^4 organisms, 18 hours 37° C., read-out: MIC): 0.156 µg/mL (≈ 0.304 µM); MIC (Staph. aureus Oxford; Staph. aureus Oxford, DST Agar, 10^4 organisms, 18 hours 37° C., read-out: MIC): 0.07 µg/mL (≈ 0.136 µM); MIC (Strep. agalactiae SPA1; Strep. agalactiae SPA1, DST Agar, 10^4 organisms, 18 hours 37° C., read-out: MIC): 0.156 µg/mL (≈ 0.304 µM); MIC (Strep. dylgalactiae SPD1; Strep. dylgalactiae SPD1, DST Agar, 10^4 organisms, 18 hours 37° C., read-out: MIC): 0.156 µg/mL (≈ 0.304 µM); MIC (Strep. uberis SPO1; Strep. uberis SPO1, DST Agar, 10^4 organisms, 18 hours 37° C., read-out: MIC): ≤ 0.019 µg/mL; MIC (Strep. 2733-B; Strep. 2733-B, nutrient agar 5% chocolated horse blood, 18 hours 37° C., read-out: MIC): 1 µg/mL (≈ 1.95 µM); MIC (Strep. 641848-C; Strep. 641848-C, nutrient agar 5% chocolated horse blood, 18 hours 37° C., read-out: MIC): 1 µg/mL (≈ 1.95 µM) |
